In US20250368648A1, “MULTI-CYCLIC IRAK AND FLT3 INHIBITING COMPOUNDS AND USES THEREOF” (CHILDREN'S HOSPITAL MEDICAL CENTER, priority 2022, published 2025):

Assays:
Type in all cases: biochemical
Conditions in all cases: HotSpot functional assay, isolated kinase enzyme, 33P-ATP
IRAK1 = biological target: T1, IRAK1 (Homo sapiens, UniProt P51617); test: RBC HotSpot Kinase Assay, IRAK1
T1 construct: purchased RBC (Reaction Biology) HotSpot assay
Excerpt: (§1) This assay uses the isolated kinase enzyme. This assay is very useful for determining competition of the inhibitor for ATP and/or substrates and for measuring the kinetics of enzyme inhibition. […] Unlike kinase binding assays that measure competition for ATP, the HotSpot Kinase Assay is a functional assay that measures catalytic activity; as such it measures relative functional potency regardless of the mechanism of enzyme inhibition. This assay uses the form of the various enzymes that are easiest to express, which may not necessarily be the form of the enzyme that exist in the cell. (Sometimes the carboxy terminus has been truncated to aid in expression, or, if it is a receptor kinase, the enzyme itself is isolated from the other parts of the receptor that are involved in regulating kinase activity.)
(§2) The reagent used was as follows: Base Reaction buffer; 20 mM Hepes (pH 7.5), 10 mM MgCl2, 1 mM EGTA, 0.01% Brij35, 0.02 mg/mi BSA, 0.1 mM Na3VO4, 2 mM DTT, 1% DMSO. Required cofactors were added individually to each kinase reaction.
(§3) The reaction procedure was as follows: • 1) Substrates were prepared in freshly prepared Reaction Buffer. • 2) Any required cofactors were delivered to the substrate solution above. • 3) Kinase was delivered into the substrate solution and gently mixed. • 4) Compounds were delivered in 100% DMSO into the kinase reaction mixture by Acoustic technology (Echo550, nanoliter range), followed by incubation for 20 min at room temp. • 5) ^33P-ATP was delivered into the reaction mixture to initiate the reaction. • 6) The mixture was incubated for 2 hours at room temperature. • 7) Kinase activity was detected by P81 filter-binding method.

FLT3 = biological target: T2, FLT3 (Homo sapiens, UniProt P36888); test: RBC HotSpot Kinase Assay, FLT3; set-up: purchased RBC (Reaction Biology) HotSpot assay
T2 sequence (P36888 27-993): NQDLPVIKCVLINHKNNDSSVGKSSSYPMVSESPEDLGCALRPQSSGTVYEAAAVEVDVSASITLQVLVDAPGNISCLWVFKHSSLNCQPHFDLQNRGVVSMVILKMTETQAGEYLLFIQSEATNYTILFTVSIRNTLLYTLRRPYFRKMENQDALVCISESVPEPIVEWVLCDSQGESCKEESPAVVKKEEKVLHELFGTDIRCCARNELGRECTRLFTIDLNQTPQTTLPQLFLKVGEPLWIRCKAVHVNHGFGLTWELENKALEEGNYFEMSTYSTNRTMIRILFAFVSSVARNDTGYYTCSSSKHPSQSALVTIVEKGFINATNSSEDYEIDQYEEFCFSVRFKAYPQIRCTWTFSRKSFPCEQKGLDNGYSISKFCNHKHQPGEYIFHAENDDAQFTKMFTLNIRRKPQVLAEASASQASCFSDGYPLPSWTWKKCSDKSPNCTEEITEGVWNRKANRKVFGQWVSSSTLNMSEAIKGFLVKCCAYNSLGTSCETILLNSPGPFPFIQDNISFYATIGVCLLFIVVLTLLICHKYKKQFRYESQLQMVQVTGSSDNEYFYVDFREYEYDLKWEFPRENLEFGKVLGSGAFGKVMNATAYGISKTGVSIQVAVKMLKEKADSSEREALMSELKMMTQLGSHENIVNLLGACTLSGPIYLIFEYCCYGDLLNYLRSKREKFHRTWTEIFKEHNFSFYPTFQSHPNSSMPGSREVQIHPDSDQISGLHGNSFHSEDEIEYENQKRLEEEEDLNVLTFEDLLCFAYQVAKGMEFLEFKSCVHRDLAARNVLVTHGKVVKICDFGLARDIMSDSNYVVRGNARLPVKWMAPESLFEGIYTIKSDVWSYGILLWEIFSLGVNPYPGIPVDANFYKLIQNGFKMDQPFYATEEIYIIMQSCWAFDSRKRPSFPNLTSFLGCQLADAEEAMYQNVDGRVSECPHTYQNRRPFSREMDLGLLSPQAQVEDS
Excerpt: as §1, §2, §3

IRAK4 = biological target: T3, IRAK4 (Homo sapiens, UniProt Q9NWZ3); test: RBC HotSpot Kinase Assay, IRAK4; set-up: purchased RBC (Reaction Biology) HotSpot assay
T3 sequence (Q9NWZ3 1-460): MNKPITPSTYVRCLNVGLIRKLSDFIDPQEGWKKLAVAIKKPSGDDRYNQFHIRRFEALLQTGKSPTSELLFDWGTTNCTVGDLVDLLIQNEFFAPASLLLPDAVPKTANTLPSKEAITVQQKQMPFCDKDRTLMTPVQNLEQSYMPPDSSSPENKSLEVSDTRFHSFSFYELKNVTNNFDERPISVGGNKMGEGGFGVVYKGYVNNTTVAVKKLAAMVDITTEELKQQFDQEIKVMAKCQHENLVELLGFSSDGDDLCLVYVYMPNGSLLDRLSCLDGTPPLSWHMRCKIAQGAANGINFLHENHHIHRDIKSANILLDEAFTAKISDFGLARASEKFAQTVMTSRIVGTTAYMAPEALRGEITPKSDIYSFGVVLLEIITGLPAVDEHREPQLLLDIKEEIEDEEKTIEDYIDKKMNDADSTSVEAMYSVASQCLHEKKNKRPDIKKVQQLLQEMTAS
Excerpt: as §1, §2, §3

T1 sequence (P51617 whole entry): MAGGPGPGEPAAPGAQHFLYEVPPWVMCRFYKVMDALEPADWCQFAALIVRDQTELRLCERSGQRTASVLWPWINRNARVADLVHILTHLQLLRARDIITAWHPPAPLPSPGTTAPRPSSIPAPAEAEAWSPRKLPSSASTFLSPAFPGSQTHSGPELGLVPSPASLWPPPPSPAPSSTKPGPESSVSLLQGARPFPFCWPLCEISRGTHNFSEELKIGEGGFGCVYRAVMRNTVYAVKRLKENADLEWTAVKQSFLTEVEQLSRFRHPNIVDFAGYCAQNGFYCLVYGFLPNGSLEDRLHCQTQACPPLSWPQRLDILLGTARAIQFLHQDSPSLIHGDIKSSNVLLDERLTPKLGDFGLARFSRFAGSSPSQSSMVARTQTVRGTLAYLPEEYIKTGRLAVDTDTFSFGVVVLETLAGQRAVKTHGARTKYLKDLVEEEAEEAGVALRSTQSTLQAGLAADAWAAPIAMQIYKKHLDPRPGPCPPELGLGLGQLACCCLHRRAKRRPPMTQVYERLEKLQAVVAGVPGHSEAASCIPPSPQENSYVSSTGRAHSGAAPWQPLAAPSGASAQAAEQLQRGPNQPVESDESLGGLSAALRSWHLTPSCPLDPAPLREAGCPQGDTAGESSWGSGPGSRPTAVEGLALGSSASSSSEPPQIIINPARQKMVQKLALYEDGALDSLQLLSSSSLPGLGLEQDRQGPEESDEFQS

| SMILES | IC50 (IRAK1) [nM] | IC50 (FLT3) [nM] | IC50 (IRAK4) [nM] |
| --- | --- | --- | --- |
| COc1ccc(N[C@H]2CNC[C@@H]2F)nc1-c1cnc2cc(OC)c(C3CC3)nn12 [Compound 36a, 6-(6-cyclopropyl-7-methoxyimidazo[1,2-b]pyridazin-3-yl)-N-((3S,4S)-4-fluoropyrrolidin-3-yl)-5-methoxypyridin-2-amine] | > 10000 | 105 | 341 |
| COc1ccc(N[C@H]2CNCC[C@@H]2F)nc1-c1cnc2cc(OC)c(C3CC3)nn12 [Compound 37a, 6-(6-cyclopropyl-7-methoxyimidazo[1,2-b]pyridazin-3-yl)-N-((3S,4S)-4-fluoropiperidin-3-yl)-5-methoxypyridin-2-amine] | > 10000 | 40 | 247 |
| COc1cc2ncc(-c3nc(N[C@H]4CNC[C@@H]4F)c(F)cc3F)n2nc1C1CC(C)(C)C1 [Compound 8a, 6-(6-(3,3-dimethylcyclobutyl)-7-methoxyimidazo[1,2-b]pyridazin-3-yl)-3,5-difluoro-N-((3S,4S)-4-fluoropyrrolidin-3-yl)pyridin-2-amine] | 190 | 0.6 | 9 |
| COc1ccc(N[C@@H]2CCCNC2)nc1-c1cnc2cc(OC)c(C3CC3)nn12 [Compound 32a, (R)-6-(6-cyclopropyl-7-methoxyimidazo[1,2-b]pyridazin-3-yl)-5-methoxy-N-(piperidin-3-yl)pyridin-2-amine] | > 10000 | 80 | 853 |
| COc1cc2ncc(-c3nc(N[C@@H]4CCCNC4)ccc3C#N)n2nc1C1CC1 [Compound 30a, (R)-2-(6-cyclopropyl-7-methoxyimidazo[1,2-b]pyridazin-3-yl)-6-(piperidin-3-ylamino)nicotinonitrile] | 2290 | 48 | 110 |
| COc1cc2ncc(-c3nc(N[C@H]4CNCC[C@@H]4F)ccc3C#N)n2nc1C1CC1 [Compound 31a, 2-(6-cyclopropyl-7-methoxyimidazo[1,2-b]pyridazin-3-yl)-6-(((3S,4S)-4-fluoropiperidin-3-yl)amino)nicotinonitrile] | 1110 | 43 | 10 |
| COc1cc2ncc(-c3nc(N[C@H]4CNC[C@@H]4F)c(F)cc3F)n2nc1N1CCCC1=O [Compound 24a, 1-(3-(3,5-difluoro-6-(((3S,4S)-4-fluoropyrrolidin-3-yl)amino)pyridin-2-yl)-7-methoxyimidazo[1,2-b]pyridazin-6-yl)pyrrolidin-2-one] | 186 | 1 | 11 |
| COc1cc2ncc(-c3nc(N[C@H]4CNCC[C@@H]4F)c(F)cc3F)n2nc1C1CC(C)(C)C1 [Compound 9a, 6-(6-(3,3-dimethylcyclobutyl)-7-methoxyimidazo[1,2-b]pyridazin-3-yl)-3,5-difluoro-N-((3S,4S)-4-fluoropiperidin-3-yl)pyridin-2-amine] | 74 | < 0.5 | 26 |
| COc1cc2ncc(-c3nc(N[C@H]4CNCC[C@@H]4F)c(F)cc3F)n2nc1C1CCCC1 [Compound 18a, 6-(6-cyclopentyl-7-methoxyimidazo[1,2-b]pyridazin-3-yl)-3,5-difluoro-N-((3S,4S)-4-fluoropiperidin-3-yl)pyridin-2-amine] | 3 | < 0.5 | 0.6 |

The next lines start with the values.

| IC50 (IRAK1) [nM] | IC50 (FLT3) [nM] | IC50 (IRAK4) [nM] | SMILES |
| --- | --- | --- | --- |
| > 10000 | 1 | 1740 | COc1cc2ncc(-c3cc(C)cc(N[C@H]4CNCC[C@@H]4F)n3)n2nc1C1CC1 [Compound 52a, 6-(6-cyclopropyl-7-methoxyimidazo[1,2-b]pyridazin-3-yl)-N-((3S,4S)-4-fluoropiperidin-3-yl)-4-methylpyridin-2-amine] |
| 125 | < 0.5 | 4 | COc1cc2ncc(-c3nc(N[C@H]4CNC[C@@H]4F)c(F)cc3F)n2nc1N1CCCS1(=O)=O [Compound 69a, 2-(3-(3,5-difluoro-6-(((3S,4S)-4-fluoropyrrolidin-3-yl)amino)pyridin-2-yl)-7-methoxyimidazo[1,2-b]pyridazin-6-yl)isothiazolidine 1,1-dioxide] |
| 60 | < 0.5 | 10 | COc1cc2ncc(-c3nc(N[C@H]4CNCC[C@@H]4F)c(F)cc3F)n2nc1N1CCCS1(=O)=O [Compound 70a, 2-(3-(3,5-difluoro-6-(((3S,4S)-4-fluoropiperidin-3-yl)amino)pyridin-2-yl)-7-methoxyimidazo[1,2-b]pyridazin-6-yl)isothiazolidine 1,1-dioxide] |
| > 10000 | 377 | > 10000 | COc1cc2ncc(-c3nc(N[C@H]4CNC[C@@H]4F)c(C)cc3C)n2nc1C1CC1 [Compound 63a, 6-(6-cyclopropyl-7-methoxyimidazo[1,2-b]pyridazin-3-yl)-N-((3S,4S)-4-fluoropyrrolidin-3-yl)-3,5-dimethylpyridin-2-amine] |
| 4010 | 741 | 4110 | COc1cc2ncc(-c3cc(-c4ccccc4)cc(N[C@@H]4CCCNC4)n3)n2nc1C1CC1 [Compound 55a, (R)-6-(6-cyclopropyl-7-methoxyimidazo[1,2-b]pyridazin-3-yl)-4-phenyl-N-(piperidin-3-yl)pyridin-2-amine] |
| 498 | < 0.5 | 28 | COc1cc2ncc(-c3nc(N[C@@H]4CCCNC4)c(F)cc3F)n2nc1C1COC1 [Compound 72a, (R)-3,5-difluoro-6-(7-methoxy-6-(oxetan-3-yl)imidazo[1,2-b]pyridazin-3-yl)-N-(piperidin-3-yl)pyridin-2-amine] |
| 8270 | 2 | 5240 | COc1cc2ncc(-c3cc(C)cc(N[C@H]4CNC[C@@H]4F)n3)n2nc1C1CC1 [Compound 50a, 6-(6-cyclopropyl-7-methoxyimidazo[1,2-b]pyridazin-3-yl)-N-((3S,4S)-4-fluoropyrrolidin-3-yl)-4-methylpyridin-2-amine] |
| > 10000 | 94 | > 10000 | COc1cc2ncc(-c3cc(Oc4ccccc4)cc(N[C@H]4CNCC[C@@H]4F)n3)n2nc1C1CC1 [Compound 61a, 6-(6-cyclopropyl-7-methoxyimidazo[1,2-b]pyridazin-3-yl)-N-((3S,4S)-4-fluoropiperidin-3-yl)-4-phenoxypyridin-2-amine] |
| > 10000 | 19 | > 10000 | COc1cc2ncc(-c3cc(C4CC4)cc(N[C@H]4CNC[C@@H]4F)n3)n2nc1C1CC1 [Compound 57a, 4-cyclopropyl-6-(6-cyclopropyl-7-methoxyimidazo[1,2-b]pyridazin-3-yl)-N-((3S,4S)-4-fluoropyrrolidin-3-yl)pyridin-2-amine] |
